Experimental data published in PubChem BioAssay (NCI).
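Grown in 96-well plates, cells were treated for 48 hours with each compound at five concentrations. Insufficient inhibition: endpoint recorded as highest concentration tested. The concentration for 50% growth inhibition is given as GI50. TGI denotes the concentration required for complete inhibition of growth.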

Legend:
Assay in all cases: inhibition of tumour cell growth, NCI panel, 48 h
RXF 393 renal = test system: RXF 393 renal
SW-620 colon = test system: SW-620 colon
TK-10 renal = test system: TK-10 renal
MOLT-4 leukemia = test system: MOLT-4 leukemia
HOP-92 NSCLC = test system: HOP-92 NSCLC
SF-295 CNS = test system: SF-295 CNS
HS 578T breast = test system: HS 578T breast
CAKI-1 renal = test system: CAKI-1 renal
NCI-H522 lung = test system: NCI-H522 lung
MALME-3M melanoma = test system: MALME-3M melanoma
T-47D breast = test system: T-47D breast
IGROV1 ovarian = test system: IGROV1 ovarian
KM12 colon = test system: KM12 colon
SK-MEL-2 melanoma = test system: SK-MEL-2 melanoma
RPMI-8226 leukemia = test system: RPMI-8226 leukemia
786-0 renal = test system: 786-0 renal
OVCAR-3 ovarian = test system: OVCAR-3 ovarian
MDA-MB-435 = test system: MDA-MB-435
UO-31 renal = test system: UO-31 renal
UACC-62 melanoma = test system: UACC-62 melanoma
SK-OV-3 ovarian = test system: SK-OV-3 ovarian
HCT-116 colon = test system: HCT-116 colon
A549 NSCLC = test system: A549 NSCLC
SF-268 CNS = test system: SF-268 CNS
NCI-H460 lung = test system: NCI-H460 lung
U251 CNS = test system: U251 CNS
PC-3 prostate = test system: PC-3 prostate
HOP-62 NSCLC = test system: HOP-62 NSCLC

Q: With `NCCNc1nc2ccc(F)cc2c2c(=O)c3cc(F)ccc3sc12` as the compound, how does the TGI (RXF 393 renal) read?
A: 7.32 µM

Q: What about the GI50 (SW-620 colon) of the same compound?
A: 1.56 µM

Q: And the TGI (SW-620 colon)?
A: 3.09 µM

Q: What about the GI50 (TK-10 renal) of the same compound?
A: 2.07 µM

Q: And the TGI (TK-10 renal)?
A: 3.57 µM

Q: And the GI50 (MOLT-4 leukemia)?
A: 1.94 µM

Q: And the TGI (MOLT-4 leukemia)?
A: 3.92 µM

Q: What about the GI50 (HOP-92 NSCLC) of the same compound?
A: 1.02 µM

Q: And the TGI (HOP-92 NSCLC)?
A: 4.6 µM

Q: What about the GI50 (SF-295 CNS) of the same compound?
A: 1.88 µM

Q: What about the TGI (SF-295 CNS) of the same compound?
A: 3.59 µM

Q: What about the GI50 (HS 578T breast) of the same compound?
A: 3.21 µM

Q: What about the TGI (HS 578T breast) of the same compound?
A: 18.4 µM

Q: What about the GI50 (CAKI-1 renal) of the same compound?
A: 1.08 µM

Q: And the TGI (CAKI-1 renal)?
A: 2.78 µM

Q: What about the GI50 (NCI-H522 lung) of the same compound?
A: 1.73 µM

Q: And the TGI (NCI-H522 lung)?
A: 3.38 µM

Q: What about the GI50 (MALME-3M melanoma) of the same compound?
A: 1.91 µM

Q: What about the TGI (MALME-3M melanoma) of the same compound?
A: 4.28 µM

Q: And the GI50 (T-47D breast)?
A: 1.72 µM

Q: What about the TGI (T-47D breast) of the same compound?
A: 3.72 µM

Q: And the GI50 (IGROV1 ovarian)?
A: 1.04 µM

Q: And the TGI (IGROV1 ovarian)?
A: 2.37 µM

Q: What about the GI50 (KM12 colon) of the same compound?
A: 1.81 µM

Q: What about the TGI (KM12 colon) of the same compound?
A: 3.46 µM

Q: What about the GI50 (SK-MEL-2 melanoma) of the same compound?
A: 1.95 µM

Q: And the TGI (SK-MEL-2 melanoma)?
A: 4.28 µM

Q: And the GI50 (RPMI-8226 leukemia)?
A: 2.18 µM

Q: What about the TGI (RPMI-8226 leukemia) of the same compound?
A: 5.11 µM

Q: And the GI50 (786-0 renal)?
A: 1.59 µM

Q: And the TGI (786-0 renal)?
A: 2.96 µM

Q: What about the GI50 (OVCAR-3 ovarian) of the same compound?
A: 1.63 µM

Q: And the TGI (OVCAR-3 ovarian)?
A: 3.15 µM

Q: What about the GI50 (MDA-MB-435) of the same compound?
A: 1.77 µM

Q: What about the TGI (MDA-MB-435) of the same compound?
A: 3.29 µM

Q: And the GI50 (UO-31 renal)?
A: 1.34 µM

Q: And the TGI (UO-31 renal)?
A: 11.3 µM

Q: And the GI50 (UACC-62 melanoma)?
A: 1.66 µM

Q: What about the TGI (UACC-62 melanoma) of the same compound?
A: 3.06 µM

Q: And the GI50 (SK-OV-3 ovarian)?
A: 5.44 µM

Q: What about the TGI (SK-OV-3 ovarian) of the same compound?
A: 20.9 µM

Q: And the GI50 (HCT-116 colon)?
A: 1.61 µM

Q: And the TGI (HCT-116 colon)?
A: 2.96 µM

Q: What about the GI50 (A549 NSCLC) of the same compound?
A: 1.73 µM

Q: What about the TGI (A549 NSCLC) of the same compound?
A: 3.38 µM

Q: And the GI50 (SF-268 CNS)?
A: 1.62 µM

Q: What about the TGI (SF-268 CNS) of the same compound?
A: 4.47 µM

Q: And the GI50 (NCI-H460 lung)?
A: 1.85 µM

Q: And the TGI (NCI-H460 lung)?
A: 3.47 µM

Q: And the GI50 (U251 CNS)?
A: 1.76 µM

Q: What about the TGI (U251 CNS) of the same compound?
A: 3.24 µM

Q: And the GI50 (PC-3 prostate)?
A: 1.48 µM

Q: What about the TGI (PC-3 prostate) of the same compound?
A: 2.85 µM

Q: What about the GI50 (HOP-62 NSCLC) of the same compound?
A: 1.39 µM

Q: And the TGI (HOP-62 NSCLC)?
A: 2.87 µM
